Measurements from ChEMBL document CHEMBL1201862, “PubChem BioAssay data set” (2004).
Active and inactive are the calls of the source.

Key:
[1] = system: P388; assay: cells; format: functional; settings: Mus musculus
[2] = system: SN12K1; assay: cells; format: functional; settings: Homo sapiens
[3] = system: P388/ADR; assay: cells; format: functional; settings: Mus musculus
[4] = A cytotoxicity screen of small molecule inhibitors of the PhoP region in Salmonella typhi identified in the primary screen. [Related pubchem assays: 1850, 1864, 1985 ]; format: functional
[5] = system: Streptococcus; assay: Group A Streptococcus viability loss, dose response, counter-screen for streptokinase expression inhibitor project, luminescence, BacTiterGlo (AID 1915); format: functional, organism-based;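 further: potency for reduction of bacterial viability or growth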
[6] = target: T1, Leucine aminopeptidase (Plasmodium falciparum 3D7, UniProt Q8IL11); assay: P. falciparum M17LAP inhibitors, primary screen, biochemical, fluorogenic H-Leu-NHMec substrate, 1536-well (AID 1619); format: functional
T1 sequence (Q8IL11 whole entry): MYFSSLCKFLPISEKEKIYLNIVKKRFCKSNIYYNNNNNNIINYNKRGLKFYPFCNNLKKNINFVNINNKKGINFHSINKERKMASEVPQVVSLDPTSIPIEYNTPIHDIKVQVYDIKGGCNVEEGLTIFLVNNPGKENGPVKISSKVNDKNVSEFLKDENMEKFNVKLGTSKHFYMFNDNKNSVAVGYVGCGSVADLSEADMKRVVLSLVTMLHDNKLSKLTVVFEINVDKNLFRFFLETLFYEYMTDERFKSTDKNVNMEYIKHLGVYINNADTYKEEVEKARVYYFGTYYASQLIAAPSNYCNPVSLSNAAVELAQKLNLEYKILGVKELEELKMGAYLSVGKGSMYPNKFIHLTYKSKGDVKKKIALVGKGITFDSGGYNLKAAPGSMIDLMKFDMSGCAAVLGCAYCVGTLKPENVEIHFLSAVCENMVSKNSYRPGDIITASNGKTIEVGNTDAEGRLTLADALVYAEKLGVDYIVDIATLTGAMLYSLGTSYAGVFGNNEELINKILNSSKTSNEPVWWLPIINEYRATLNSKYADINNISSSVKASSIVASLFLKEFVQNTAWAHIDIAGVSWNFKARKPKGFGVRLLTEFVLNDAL

[7] = system: Streptococcus sp. 'group A'; assay: growth inhibition of control SK(-) GAS strain, dose response, counter-screen for streptokinase expression inhibitor project, luminescence, kanamycin, BacTiterGlo, confirmation (AID 1900); format: functional, organism-based
[8] = target: T2, Carboxy-terminal domain RNA polymerase II polypeptide A small phosphatase 1 (Homo sapiens, UniProt Q9GZU7); assay: inhibitors of CTDSP1, concentration-response testing, biochemical assay, absorbance-based, actives from ultra-high-throughput screening (AID 540297); format: functional
T2 sequence (Q9GZU7 whole entry): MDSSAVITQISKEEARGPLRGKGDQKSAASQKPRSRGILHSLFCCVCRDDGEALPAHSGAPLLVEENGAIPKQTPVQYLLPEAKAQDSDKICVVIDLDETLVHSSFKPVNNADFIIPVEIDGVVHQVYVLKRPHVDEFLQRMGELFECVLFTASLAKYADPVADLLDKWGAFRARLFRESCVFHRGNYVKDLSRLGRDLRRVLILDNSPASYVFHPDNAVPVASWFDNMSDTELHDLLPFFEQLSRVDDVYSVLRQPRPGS

[9] = microbe, parasite or virus in culture; format: functional; settings: Mycobacterium tuberculosis
[10] = target: Prothrombin (Homo sapiens, UniProt P00734); assay: Thrombin 1536 HTS Dose Response Confirmation. [Related pubchem assays: 1046 (Thrombin 1536 HTS; hits were confirmed in this assay)]; format: functional
[11] = target: T3, RNA-binding protein pos-1 (Caenorhabditis elegans, UniProt G5EF15); assay: inhibitors of POS-1/mex-3 RNA binding, dose response, biochemical, fluorescence polarization (AID 1964);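 further: purified POS-1 fused to maltose binding protein made in E. coli; potency of compounds blocking POS-1 binding to fluorescent RNA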
T3 sequence (G5EF15 whole entry): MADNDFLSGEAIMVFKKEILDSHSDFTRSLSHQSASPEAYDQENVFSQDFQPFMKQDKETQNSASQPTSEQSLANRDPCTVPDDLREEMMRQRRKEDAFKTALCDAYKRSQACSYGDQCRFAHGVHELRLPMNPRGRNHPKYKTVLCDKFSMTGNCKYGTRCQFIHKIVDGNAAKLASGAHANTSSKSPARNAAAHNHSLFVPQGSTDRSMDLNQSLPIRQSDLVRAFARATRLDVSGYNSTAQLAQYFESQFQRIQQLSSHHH

[12] = target: T4, Zinc finger protein mex-5 (Caenorhabditis elegans, UniProt Q9XUB2); assay: MEX-5/TCR-2 RNA interaction inhibitors, dose response, biochemical, C. elegans, fluorescence polarization (AID 1960)
T4 sequence (Q9XUB2 whole entry): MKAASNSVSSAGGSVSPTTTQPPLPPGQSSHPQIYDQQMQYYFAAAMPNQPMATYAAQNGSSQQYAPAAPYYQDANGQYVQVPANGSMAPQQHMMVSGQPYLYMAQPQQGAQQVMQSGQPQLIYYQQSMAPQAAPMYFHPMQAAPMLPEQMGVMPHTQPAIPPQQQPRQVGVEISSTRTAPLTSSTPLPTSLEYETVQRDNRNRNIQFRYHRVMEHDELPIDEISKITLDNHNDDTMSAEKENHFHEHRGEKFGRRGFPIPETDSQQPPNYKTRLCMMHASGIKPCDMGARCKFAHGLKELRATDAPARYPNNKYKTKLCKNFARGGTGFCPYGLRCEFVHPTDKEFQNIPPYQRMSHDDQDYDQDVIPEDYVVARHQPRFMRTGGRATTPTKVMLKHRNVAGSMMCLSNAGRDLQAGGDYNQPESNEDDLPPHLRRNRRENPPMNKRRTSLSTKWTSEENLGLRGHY

[13] = target: T5, Protein skinhead-1 (Caenorhabditis elegans, UniProt P34707); format: functional
T5 sequence (P34707 whole entry): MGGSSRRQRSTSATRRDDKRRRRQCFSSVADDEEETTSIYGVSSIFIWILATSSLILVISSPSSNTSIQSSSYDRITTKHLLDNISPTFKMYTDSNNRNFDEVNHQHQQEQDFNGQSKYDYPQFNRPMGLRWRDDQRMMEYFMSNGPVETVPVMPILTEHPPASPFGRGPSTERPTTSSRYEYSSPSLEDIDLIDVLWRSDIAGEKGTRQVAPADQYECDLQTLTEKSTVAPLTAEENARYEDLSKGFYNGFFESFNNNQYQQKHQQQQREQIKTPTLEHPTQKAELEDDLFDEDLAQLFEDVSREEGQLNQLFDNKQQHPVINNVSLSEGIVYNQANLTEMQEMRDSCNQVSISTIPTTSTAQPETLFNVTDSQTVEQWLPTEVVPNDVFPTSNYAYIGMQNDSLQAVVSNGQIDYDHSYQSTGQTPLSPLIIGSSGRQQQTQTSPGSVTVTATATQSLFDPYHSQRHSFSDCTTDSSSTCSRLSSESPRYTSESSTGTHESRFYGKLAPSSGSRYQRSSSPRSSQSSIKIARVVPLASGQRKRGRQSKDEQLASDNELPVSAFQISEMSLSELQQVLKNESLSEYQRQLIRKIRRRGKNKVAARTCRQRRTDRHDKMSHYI

[14] = control 3'UTR Renilla luciferase suppression, dose response, counter-screen for Shn3 inhibitor project, cell-based, Clone20-Shn3RL, cherry-picked (AID 624133); format: functional
[15] = Shn3 3'UTR reporter inhibitors, dose response, cell-based, Clone20 osteoblasts, firefly luciferase, cherry-picked (AID 624132); format: functional;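 further: firefly luciferase luminescence from reporter carrying the Shn3 3'UTR in osteoblasts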
[16] = target: 72 kDa type IV collagenase (Homo sapiens, UniProt P08253); assay: Dose Response validation of uHTS RPN11 inhibitor hits using a MMP-2 Fluorescence assay.; format: functional
[17] = target: 26S proteasome non-ATPase regulatory subunit 14 (Homo sapiens, UniProt O00487); assay: inhibition of proteasome subunit RPN11 – biochemical, fluorescence polarization, uHTS hits, confirmation (AID 602368); format: functional
[18] = target: Prothrombin (Bos taurus, UniProt P00735); assay: thrombin inhibition, dose response, biochemical, fluorescence polarization, uHTS hits (AID 602369); format: functional
[19] = off-target signal loss in HeLa-CEM21 co-culture – HeLa F-luc CTL cells, cherry-picked, counter-screen for HIV-1 Env fusion inhibitor project, dose response (AID 652040); format: functional, cell-based;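 further: potency for signal decrease marking cytotoxic or nonspecific inhibition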
[20] = inhibitors of clade B AD8 Env fusion, dose response, cell-based, cherry-pick (AID 652062); format: functional;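 further: luciferase signal from cell-cell fusion driven by HIV-1 clade B AD8 Env; potency is for inhibitors of fusion seen as a drop in luminescence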
[21] = target: Nonstructural protein 1 (Influenza A virus, UniProt Q194T2); format: functional, Influenza A virus (A/California/07/2009(H1N1))
Sequence of Nonstructural protein 1 (Q194T2 whole entry): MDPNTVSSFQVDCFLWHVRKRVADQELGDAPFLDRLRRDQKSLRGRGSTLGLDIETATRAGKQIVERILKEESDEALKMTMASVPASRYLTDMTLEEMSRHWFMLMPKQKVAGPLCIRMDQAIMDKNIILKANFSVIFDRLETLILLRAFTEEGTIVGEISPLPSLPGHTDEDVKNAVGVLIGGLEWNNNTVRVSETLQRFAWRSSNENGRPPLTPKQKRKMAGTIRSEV

Sequence of 26S proteasome non-ATPase regulatory subunit 14 (O00487 whole entry): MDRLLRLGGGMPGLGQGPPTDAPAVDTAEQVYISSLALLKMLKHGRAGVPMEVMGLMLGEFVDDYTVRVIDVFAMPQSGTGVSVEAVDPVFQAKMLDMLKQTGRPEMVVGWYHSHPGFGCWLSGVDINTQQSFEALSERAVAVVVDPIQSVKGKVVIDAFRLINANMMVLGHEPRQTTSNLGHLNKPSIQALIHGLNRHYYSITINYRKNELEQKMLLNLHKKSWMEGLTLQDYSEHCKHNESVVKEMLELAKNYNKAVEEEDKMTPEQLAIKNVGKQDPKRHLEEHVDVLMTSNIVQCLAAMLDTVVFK
Sequence of 72 kDa type IV collagenase (P08253 whole entry): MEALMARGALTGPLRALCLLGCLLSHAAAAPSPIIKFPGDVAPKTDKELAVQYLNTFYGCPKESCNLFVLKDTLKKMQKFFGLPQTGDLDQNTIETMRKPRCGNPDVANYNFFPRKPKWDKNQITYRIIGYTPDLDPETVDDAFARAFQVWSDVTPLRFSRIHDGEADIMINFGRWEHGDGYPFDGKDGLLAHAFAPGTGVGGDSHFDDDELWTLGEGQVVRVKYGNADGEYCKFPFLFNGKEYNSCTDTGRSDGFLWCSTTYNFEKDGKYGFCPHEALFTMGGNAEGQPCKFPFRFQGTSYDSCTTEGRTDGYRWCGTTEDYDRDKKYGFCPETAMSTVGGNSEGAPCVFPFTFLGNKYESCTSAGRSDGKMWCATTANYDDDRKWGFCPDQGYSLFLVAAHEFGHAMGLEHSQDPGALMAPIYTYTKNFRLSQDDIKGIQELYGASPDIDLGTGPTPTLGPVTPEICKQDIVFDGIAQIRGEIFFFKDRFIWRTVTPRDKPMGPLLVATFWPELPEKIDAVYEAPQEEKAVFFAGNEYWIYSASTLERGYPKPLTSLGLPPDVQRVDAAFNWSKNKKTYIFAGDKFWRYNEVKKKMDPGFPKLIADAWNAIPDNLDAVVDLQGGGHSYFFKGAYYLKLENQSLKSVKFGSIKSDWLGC

## Nc1ccc2cc(S(=O)(=O)O)cc(O)c2c1/N=N/c1ccc(NC(=O)Nc2ccc(/N=N/c3c(N)ccc4cc(S(=O)(=O)O)cc(O)c34)c(S(=O)(=O)O)c2)cc1S(=O)(=O)O
[1]
  GI50: 45.2 µM (inactive)
[2]
  GI50: > 100 µM (inactive)
[3]
  GI50: 95.5 µM (inactive)

## CC(NCc1ccc(Cl)cc1)C(O)c1ccccc1 (centres undefined)
[4]
  EC50: > 50 µM (active)

## Cc1nnc(SCC2=C(C(=O)O)N3C(=O)C(NC(=O)Cn4nc(C(F)F)c(Cl)c4C)C3SC2)s1 (centres undefined)
[5]
  EC50: 0.228 µM (active)
[6]
  IC50: 13.9 µM (active)
[7]
  EC50: < 0.06 µM (active)

## O=C(CSc1nc(O)cc(-c2ccccc2)n1)Nc1ccccn1
[6]
  IC50: 8.69 µM (active)

## NC(=NOC(=O)c1cccc([N+](=O)[O-])c1)c1cccc([N+](=O)[O-])c1
[8]
  IC50: 11.2 µM (active)

## CCc1c(O)cc(=O)n(-c2ccccc2)c1-c1ccccc1
[6]
  IC50: 23.5 µM (active)

## O=C(CCn1c(=O)c2cccn2c2cccnc21)N1CCN(c2cccc(Cl)c2)CC1
[9]
  CC50: > 40 µM (active)

## CSc1ccc(/C=C(\C(=O)O)c2ccc(S(=O)(=O)N3CCCC3)s2)cc1
[8]
  IC50: 5.2 µM (active)

## C[N@+]12CC[C@H](CC1)C(=C(c1ccccc1)c1ccccc1)C2
[8]
  IC50: 3.04 µM (active)

## CC(=O)OCC1(C)CN(c2ccccc2)N(C(=O)c2ccc(C(C)(C)C)cc2)C1=O (centres undefined)
[10]
  IC50: 18 µM (active)

## Cc1cccc(-n2ccnc2CN2CCN(C3CCCC3)C(CCO)C2)c1 (centres undefined)
[4]
  EC50: > 50 µM (active)

## C=CCn1c(SCC(=O)NCc2ccc3c(c2)OCO3)nnc1C1COc2ccccc2O1 (centres undefined)
[6]
  IC50: < 1 µM (active)

## COc1cc(S(=O)(=O)N2CCOCC2)ccc1NC(=O)COC(=O)c1ccccn1
[10]
  IC50: 0.545 µM (active)

## N=c1c(C(=O)NC2CCCCC2)cc2c(=O)n3ccccc3nc2n1Cc1ccc(F)cc1
[11]
  EC50: > 300 µM (not active)
[9]
  CC50: > 40 µM (active)
[12]
  EC50: 13.3 µM (active)

## N=C(NOC(=O)COc1ccc2ccccc2c1)c1ccccn1
[4]
  EC50: > 50 µM (active)

## CCOC(=O)CSC1=N/C(=C/c2ccc(-n3cncn3)cc2)C(=O)N1C(C)=O
[10]
  IC50: 0.942 µM (active)

## COC(=O)c1ccc(NC(S)=NNC(=O)c2ccccc2)cc1
[4]
  EC50: > 50 µM (active)

## Brc1ccc(Oc2nnnn2-c2ccccc2)cc1
[13]
  IC50: 35.1 µM (active)

## Cc1cc(NC(=O)Cc2ccsc2)ccc1Br
[13]
  IC50: > 100 µM (inactive)

## COC(c1ccccc1)c1nnc(CCC(=O)N(C)Cc2cccc(-n3cccn3)c2)o1 (centres undefined)
[10]
  IC50: > 50 µM (not active)

## CCOC(=O)N1CCN(CCC(=O)c2ccc(Br)cc2)CC1
[4]
  EC50: > 50 µM (active)

## O=C(Nc1ccc2[nH]c(-c3ccc(Br)o3)nc2c1)c1ccco1
[4]
  EC50: > 50 µM (active)

## O=C(C1CCCCC1)N1CCN(S(=O)(=O)c2ccc(Cl)cc2)CC1
[13]
  IC50: > 100 µM (inactive)

## O=C(O)CSCC(=O)NCc1cccc(C(F)(F)F)c1
[10]
  IC50: > 50 µM (not active)

## CC(C)(C)[C@@H]1COC(=O)[C@@H](NC(=O)OCC2c3ccccc3-c3ccccc32)C/C=C\C[C@@H](CC(=O)NCCO)C(=O)N1
[14]
  AC50: 26.3 µM (active)
[15]
  AC50: 22.1 µM (active)

## O=C1Nc2ccc(S(=O)(=O)NCc3ccccn3)c3cccc1c23
[8]
  IC50: 8.42 µM (active)

## N/C(=N\O)N/N=C/c1cc2c(cc1Cl)OCO2
[1]
  GI50: 29.3 µM (inactive)
[2]
  GI50: 31.3 µM (inactive)
[3]
  GI50: 23.7 µM (inactive)

## C=CCN1C(=O)/C(=C\Nc2cccc([N+](=O)[O-])c2)C(=O)N(CCCC)C1=O
[16]
  IC50: > 100 µM (inactive)
[17]
  IC50: 34 µM (active)
[18]
  IC50: 42.7 µM (active)

## O=C1CN(CC(=O)N2CCCCC2)c2ccccc2O1
[9]
  CC50: 38.6 µM (active)

## O=C(COC(=O)c1cncc(Br)c1)Nc1nnc(-c2ccccc2)o1
[8]
  IC50: 6.29 µM (active)

## Cn1cccc1C(=O)OCC(=O)NCCc1ccc(S(N)(=O)=O)cc1
[19]
  AC50: > 70 µM (inactive)
[20]
  AC50: 7.13 µM (active)

## O=C(CCCN1CCC(C(O)c2ccc(F)cc2)CC1)c1ccc(F)cc1 (centres undefined)
[1]
  GI50: 38.3 µM (inactive)
[2]
  GI50: 56.4 µM (inactive)
[3]
  GI50: 46.1 µM (inactive)

## Cc1c2c(cc3c1[nH]c1ccccc13)C(c1ccc(Cl)cc1)=NCC2
[1]
  GI50: 0.398 µM (active)
[2]
  GI50: 0.284 µM (active)
[3]
  GI50: 0.428 µM (active)

## CO[C@H]1CN(C)C(=O)c2cc(NC(=O)C3CCOCC3)ccc2OC[C@H](C)N(Cc2nccs2)C[C@H]1C
[19]
  AC50: 43.3 µM (active)
[20]
  AC50: 24.9 µM (active)

## Cc1c2cc[n+](C)cc2c(C)c2c1[nH]c1ccccc12
[1]
  GI50: 0.887 µM (active)
[2]
  GI50: 0.416 µM (active)
[3]
  GI50: 55.5 µM (inactive)

## Cc1cc(N2CCN(C3CCCCC3)CC2)nc2cccc(O)c12
[4]
  EC50: > 50 µM (active)
[21]
  IC50: > 100 µM (active)

## COc1nc(C(Cl)(Cl)Cl)c(Cl)c(OC)c1Cl [PENCLOMEDINE]
[1]
  GI50: 8.61 µM (inactive)
[2]
  GI50: 28.3 µM (inactive)
[3]
  GI50: 40.6 µM (inactive)
